Patent US12529022B2, “Human organ-on-chip models for predictive screening” (The Trustees of Columbia University in the City of New York, priority 2018, dated 2026)

Columns and labels:
TE-ES and TE-OS models = assay: Linsitinib titration on TE-ES and TE-OS bone tumor models, luminescence as cancer cell viability; type: cell-based, human; settings: 21-day treatment cycle
Description: The cells were allowed to attach for 2 hours, and then supplemented with additional mesenchymal stem cell medium overnight. The following day, osteogenic differentiation of the seeded cells was initiated by addition of low glucose DMEM supplemented with 1 μM dexamethasone (Sigma-Aldrich), 10 mM β-glycerophosphate (SigmaAldrich), and 50 μM L-ascorbic acid-2-phosphate (Sigma Aldrich). Each scaffold was incubated in 4 mL of osteogenic media, with media changes three times a week, for 3 weeks, allowing for the MSCs to differentiate into functional, maturing osteoblasts. Two weeks following the initiation of osteogenic differentiation, aggregates of tumor cells were prepared as described previously. Briefly, 0.3×10^6 cells were used to form ES aggregates and 0.5×10^6 cells were used to form OS aggregates. After 1 week of culture, the primary bone tumor aggregates were infused into the differentiated osteoblastseeded bone scaffolds (3 aggregates per scaffold, placed apart of each other). […] Cell viability: Cancer cell viability was measured for GFP-Luciferase labelled cancer cells using ONE-Glo luciferase substrate that was prepared according to manufacturer's protocol (Promega). […] Cardiac cell viability was assessed through the Pierce LDH Cytotoxicity Assay Kit (Thermo Fisher Scientific). […]

[1] = test system: non-metastatic (U2-OS cell line derived) osteosarcoma OOC; assay: Non-metastatic osteosarcoma OOC, luciferase luminescence (cancer cell number and viability); type: cell-based, human; settings: 12 μM
Description: (§1) Drug treatment experiments recapitulating the patient treatment regimens and the patient plasma concentration of 12 μM of linsitinib were then carried out on the nonmetastatic and metastatic TE-ES and OS models. FIGS. 44 and 45 are graphs illustrating non-metastatic (U2-OS cell line derived, FIG. 44) and metastatic (KHOS/NP cell line derived, FIG. 45) osteosarcoma OOCs exposed to linsitinib (12 μM) according to the drug treatment regimen outlined. Luminescence as a function of cancer cell number and viability was measured (mean±s.e.m., n=6 for day 3, and n=3 for day 7 and 21, biologically independent per group). Significance was determined by unpaired two-tailed Student's t test of treatment group at specific day with respective control; *P<0.05; **P<0.01; ***P<0.001. Tissue engineered bone tumor models: Using an established protocol, expanded MSCs were seeded into the bone matrix scaffolds (4 mm×4 mm×1 mm) at a concentration of 10^6 cells per scaffold, using 40 μL of medium. The cells were allowed to attach for 2 hours, and then supplemented with additional mesenchymal stem cell medium overnight. The following day, osteogenic differentiation of the seeded cells was initiated by addition of low glucose DMEM supplemented with 1 μM dexamethasone (Sigma-Aldrich), 10 mM β-glycerophosphate (SigmaAldrich), and 50 μM L-ascorbic acid-2-phosphate (Sigma Aldrich). Each scaffold was incubated in 4 mL of osteogenic media, with media changes three times a week, for 3 weeks, allowing for the MSCs to differentiate into functional, maturing osteoblasts. Two weeks following the initiation of osteogenic differentiation, aggregates of tumor cells were prepared as described previously. Briefly, 0.3×10^6 cells were used to form ES aggregates and 0.5×10^6 cells were used to form OS aggregates. […] Cell viability: Cancer cell viability was measured for GFP-Luciferase labelled cancer cells using ONE-Glo luciferase substrate that was prepared according to manufacturer's protocol (Promega). […] Cardiac cell viability was assessed through the Pierce LDH Cytotoxicity Assay Kit (Thermo Fisher Scientific). […]

[2] = test system: metastatic (KHOS/NP cell line derived) osteosarcoma OOC; assay: Metastatic osteosarcoma OOC, luciferase luminescence (cancer cell number and viability); type: cell-based, human; settings: 12 μM
Description: as §1

human cardiac OOC = assay: Cardiac OOC hydrogen peroxide (ROS-Glo H2O2) assay; type: cell-based; settings: after linsitinib treatment
Description: Tissues were randomly assigned to experimental groups. Medium was changed every day. Cardiac tissues were exposed to linsitinib for 3 days.
Hydrogen peroxide assay: After drug treatment, hydrogen peroxide (H2O2) levels in cardiac tissues were measured using ROS-Glo™ H2O2 Assay (Promega).

- levels of reactive oxygen species (hydrogen peroxide formation) (human cardiac OOC): not observed
Structure (SMILES): C[C@]1(O)C[C@@H](c2nc(-c3ccc4ccc(-c5ccccc5)nc4c3)c3c(N)nccn32)C1 [linsitinib, Linsitinib (OSI-906)]
- luminescence signal as indicator of cancer cell viability (TE-ES and TE-OS models; 12 μM, ES and OS models): significant responses
- luminescence signal as indicator of cancer cell viability, titration (TE-ES and TE-OS models; linsitinib titration): dose response
- course of treated cancer cell population ([1]; after 3 weeks): no longer expanding
- luminescence (cancer cell number and viability) vs control ([1]; after 3 weeks of drug treatment): significant response
- luminescence (cancer cell number and viability) vs control ([1]; after 3 days): no significant response
- luminescence (cancer cell number and viability) vs control ([2]; after 3 days): significant drug response
- drug efficacy ([2]; by day 7): stopped being effective
- course of tumor ([2]; day 7 to D21): rapidly expand before stabilizing by D21
